In US9951077B2, “Aminopyridazinone compounds as protein kinase inhibitors” (ETERNITY BIOSCIENCE INC., priority 2014, dated 2018):

Molecular target: Btk (Homo sapiens (Human), UniProt Q06187)
Test: Btk kinase assay (ADP-Glo)
Assay type: biochemical
Conditions: ATP 1.2 μM, 60 minutes, room temperature; read-out: BTK enzyme IC50
Protocol: The Btk kinase assay was performed using a ADP-Glo Btk kinase assay kit purchased from Promega (Madison, Wis.). The assay was conducted according to the protocols provided in the assay kit. In brief, the enzyme reaction was carried out in the kinase reaction buffer containing Btk (2 ng/μl), ATP (1.2 μM), poly GT peptide (0.3 μM), DTT (40 nM), MnCl2 (1.4 mM), and 1×kinase buffer (included in the kit) in the presence or absence of the tested articles at various concentrations in 384-well plate at room temperature (22±1° C.) for 60 minutes. The final reaction volume for each reaction was 10 μl. Then, 4 μl of ADP-Glo reagent (included in the kit) was added into the reaction and the plate was further incubated for another 40 minutes to terminate the reaction and deplete the remaining ATP. Finally, 10 μl of the kinase detection reagent was added into each reaction to simultaneously convert ADP to ATP and allow the newly synthesized ATP to be measured by a plate-reading luminometer (Victor X5 2030 multilabel reader, PerkinElmer). IC50 value was calculated using appropriate programs in GraphPad Prism by plotting the logarithm of the concentration versus percent inhibition as compared with a vehicle (DMSO) control.

Sequence of Btk (Q06187 whole entry): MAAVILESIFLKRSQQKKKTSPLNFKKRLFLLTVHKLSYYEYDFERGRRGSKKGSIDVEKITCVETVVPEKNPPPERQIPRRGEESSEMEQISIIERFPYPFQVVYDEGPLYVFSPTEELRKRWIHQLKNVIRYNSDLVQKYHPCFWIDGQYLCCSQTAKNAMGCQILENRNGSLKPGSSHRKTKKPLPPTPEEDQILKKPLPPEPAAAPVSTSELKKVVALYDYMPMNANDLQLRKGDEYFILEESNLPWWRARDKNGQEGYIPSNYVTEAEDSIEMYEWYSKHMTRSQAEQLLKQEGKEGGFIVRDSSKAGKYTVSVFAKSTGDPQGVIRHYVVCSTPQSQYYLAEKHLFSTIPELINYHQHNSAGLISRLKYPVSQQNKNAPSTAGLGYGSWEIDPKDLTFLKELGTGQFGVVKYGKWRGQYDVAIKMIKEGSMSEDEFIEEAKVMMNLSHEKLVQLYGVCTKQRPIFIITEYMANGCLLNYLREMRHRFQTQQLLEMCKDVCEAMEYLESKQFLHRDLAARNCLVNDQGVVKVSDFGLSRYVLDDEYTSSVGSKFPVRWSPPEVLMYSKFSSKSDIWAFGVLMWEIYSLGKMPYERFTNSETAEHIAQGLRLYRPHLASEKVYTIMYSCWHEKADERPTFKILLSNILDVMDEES

Row | IC50 | SMILES
1 | ≤ 10 nM | Nc1n[nH]c(=O)c2c1c(-c1ccc(Oc3ccccc3)cc1)cn2[C@@H]1CCCN(C(=O)/C=C/CN2CCC2)C1 [Example 33, 4-amino-1-[(3R)-1-[(E)-4-(azetidin-1-yl)but-2-enoyl]-3-piperidyl]-3-(4-phenoxyphenyl)-6H-pyrrolo[2,3-d]pyridazin-7-one]
2 | ≤ 10 nM | Nc1n[nH]c(=O)c2c1c(-c1ccc(Oc3ccccc3)cc1)cn2[C@@H]1CCCN(C(=O)/C=C/CN2CCCC2)C1 [Example 34, 4-amino-3-(4-phenoxyphenyl)-1-[(3R)-1-[(E)-4-pyrrolidin-1-ylbut-2-enoyl]-3-piperidyl]-6H-pyrrolo[2,3-d]pyridazin-7-one]
3 | ≤ 10 nM | Nc1n[nH]c(=O)c2c1c(-c1ccc(Oc3ccccc3)cc1)cn2[C@@H]1CCCN(C(=O)/C=C/CN2CCOCC2)C1 [Example 35, 4-amino-1-[(3R)-1-[(E)-4-morpholinobut-2-enoyl]-3-piperidyl]-3-(4-phenoxyphenyl)-6H-pyrrolo[2,3-d]pyridazin-7-one]
4 | 1000 to 100000 nM | COC/C=C/C(=O)N1CCC[C@@H](n2cc(-c3ccc(Oc4ccccc4)cc3)c3c(N)n[nH]c(=O)c32)C1 [Example 37, 4-amino-1-[(3R)-1-[(E)-4-methoxybut-2-enoyl]-3-piperidyl]-3-(4-phenoxyphenyl)-6H-pyrrolo[2,3-d]pyridazin-7-one]
5 | ≤ 10 nM | CN(C)C/C=C/C(=O)N1CCCC(n2cc(-c3ccc(Oc4ccccc4)cc3)c3c(N)n[nH]c(=O)c32)C1 (stereo not shown) [Example 38, 4-amino-1-[1-[(E)-4-(dimethylamino)but-2-enoyl]-3-piperidyl]-3-(4-phenoxyphenyl)-6H-pyrrolo[2,3-d]pyridazin-7-one]
6 | ≤ 10 nM | CN(C)C/C=C/C(=O)N1CC[C@@H](n2cc(-c3ccc(Oc4ccccc4)cc3)c3c(N)n[nH]c(=O)c32)C1 [Example 39, 4-amino-1-[(3R)-1-[(E)-4-(dimethylamino)but-2-enoyl]pyrrolidin-3-yl]-3-(4-phenoxyphenyl)-6H-pyrrolo[2,3-d]pyridazin-7-one]
7 | 10 to 1000 nM | CN(C)C/C=C/C(=O)N1CC(n2cc(-c3ccc(Oc4ccccc4)cc3)c3c(N)n[nH]c(=O)c32)C1 [Example 40, 4-amino-1-[1-[(E)-4-(dimethylamino)but-2-enoyl]azetidin-3-yl]-3-(4-phenoxyphenyl)-6H-pyrrolo[2,3-d]pyridazin-7-one]
8 | 10 to 1000 nM | CN(C)C/C=C/C(=O)N1CCC[C@H]1Cn1cc(-c2ccc(Oc3ccccc3)cc2)c2c(N)n[nH]c(=O)c21 [Example 41, 4-amino-1-[[(2S)-1-[(E)-4-(dimethylamino)but-2-enoyl]pyrrolidin-2-yl]methyl]-3-(4-phenoxyphenyl)-6H-pyrrolo[2,3-d]pyridazin-7-one]
9 | 1000 to 100000 nM | CN(C)C/C=C/C(=O)N1CCC[C@@H]1Cn1cc(-c2ccc(Oc3ccccc3)cc2)c2c(N)n[nH]c(=O)c21 [Example 42, 4-amino-1-[[(2R)-1-[(E)-4-(dimethylamino)but-2-enoyl]pyrrolidin-2-yl]methyl]-3-(4-phenoxyphenyl)-6H-pyrrolo[2,3-d]pyridazin-7-one]
10 | 10 to 1000 nM | CN(C)C/C=C/C(=O)N1CCC(Cn2cc(-c3ccc(Oc4ccccc4)cc3)c3c(N)n[nH]c(=O)c32)C1 (stereo not shown) [Example 43, 4-amino-1-[[1-[(E)-4-(dimethylamino)but-2-enoyl]pyrrolidin-3-yl]methyl]-3-(4-phenoxyphenyl)-6H-pyrrolo[2,3-d]pyridazin-7-one]
11 | 10 to 1000 nM | CN(C)C/C=C/C(=O)N1CCC(n2cc(-c3ccc(Oc4ccccc4)cc3)c3c(N)n[nH]c(=O)c32)CC1 [Example 44, 4-amino-1-[1-[(E)-4-(dimethylamino)but-2-enoyl]-4-piperidyl]-3-(4-phenoxyphenyl)-6H-pyrrolo[2,3-d]pyridazin-7-one]
12 | 10 to 1000 nM | N#C/C(=C\C1CC1)C(=O)N1CCC[C@@H](n2cc(-c3ccc(Oc4ccccc4)cc3)c3c(N)n[nH]c(=O)c32)C1 [Example 50, (E)-2-[(3R)-3-[4-amino-7-oxo-3-(4-phenoxyphenyl)-6H-pyrrolo[2,3-d]pyridazin-1-yl]piperidine-1-carbonyl]-3-cyclopropyl-prop-2-enenitrile]
13 | ≤ 10 nM | C=CC(=O)N1CCCC(n2cc(-c3ccc(OC)cc3)c3c(N)n[nH]c(=O)c32)C1 (stereo not shown) [Example 51, 1-(1-acryloylpiperidin-3-yl)-4-amino-3-(4-methoxyphenyl)-1H-pyrrolo[2,3-d]pyridazin-7(6H)-one]
14 | ≤ 10 nM | COc1ccc(-c2cn(C3CCCN(C(=O)/C=C/CN(C)C)C3)c3c(=O)[nH]nc(N)c23)cc1 (stereo not shown) [Example 52, 4-amino-1-[1-[(E)-4-(dimethylamino)but-2-enoyl]-3-piperidyl]-3-(4-methoxyphenyl)-6H-pyrrolo[2,3-d]pyridazin-7-one]
15 | ≤ 10 nM | C=CC(=O)N1CCCC(n2cc(-c3ccc(OC)c(Cl)c3)c3c(N)n[nH]c(=O)c32)C1 (stereo not shown) [Example 53, 1-(1-acryloylpiperidin-3-yl)-4-amino-3-(3-chloro-4-methoxyphenyl)-1H-pyrrolo[2,3-d]pyridazin-7(6H)-one]
16 | ≤ 10 nM | COc1ccc(-c2cn(C3CCCN(C(=O)/C=C/CN(C)C)C3)c3c(=O)[nH]nc(N)c23)cc1Cl (stereo not shown) [Example 54, 4-amino-3-(3-chloro-4-methoxy-phenyl)-1-[1-[(E)-4-(dimethylamino)but-2-enoyl]-3-piperidyl]-6H-pyrrolo[2,3-d]pyridazin-7-one]
17 | ≤ 10 nM | C=CC(=O)N1CCCC(n2cc(-c3ccc(Oc4ccccc4F)cc3)c3c(N)n[nH]c(=O)c32)C1 (stereo not shown) [Example 55, 1-(1-acryloylpiperidin-3-yl)-4-amino-3-(4-(2-fluorophenoxy)phenyl)-1H-pyrrolo[2,3-d]pyridazin-7(6H)-one]
18 | ≤ 10 nM | C=CC(=O)N1CCC[C@@H](n2cc(-c3ccc(Oc4ccccc4F)cc3)c3c(N)n[nH]c(=O)c32)C1 [Example 56, (R)-1-(1-acryloylpiperidin-3-yl)-4-amino-3-(4-(2-fluorophenoxy)phenyl)-1H-pyrrolo[2,3-d]pyridazin-7(6H)-one]
19 | ≤ 10 nM | CN(C)C/C=C/C(=O)N1CCC[C@@H](n2cc(-c3ccc(Oc4ccccc4F)cc3)c3c(N)n[nH]c(=O)c32)C1 [Example 57, 4-amino-1-[(3R)-1-[(E)-4-(dimethylamino)but-2-enoyl]-3-piperidyl]-3-[4-(2-fluorophenoxy)phenyl]-6H-pyrrolo[2,3-d]pyridazin-7-one]
20 | 10 to 1000 nM | CN(C)C/C=C/C(=O)N1CCC[C@@H](n2cc(-c3ccc(Oc4c(F)cccc4F)cc3)c3c(N)n[nH]c(=O)c32)C1 [Example 59, 4-amino-3-[4-(2,6-difluorophenoxy)phenyl]-1-[(3R)-1-[(E)-4-(dimethylamino)but-2-enoyl]-3-piperidyl]-6H-pyrrolo[2,3-d]pyridazin-7-one]
21 | 10 to 1000 nM | C=CC(=O)N1CCCC(n2cc(-c3ccc(Oc4ccc(F)cc4)cc3)c3c(N)n[nH]c(=O)c32)C1 (stereo not shown) [Example 60, 1-(1-acryloylpiperidin-3-yl)-4-amino-3-(4-(4-fluorophenoxy)phenyl)-1H-pyrrolo[2,3-d]pyridazin-7(6H)-one]
22 | 10 to 1000 nM | CN(C)C/C=C/C(=O)N1CCCC(n2cc(-c3ccc(Oc4ccc(F)cc4)cc3)c3c(N)n[nH]c(=O)c32)C1 (stereo not shown) [Example 61, 4-amino-1-[1-[(E)-4-(dimethylamino)but-2-enoyl]-3-piperidyl]-3-[4-(4-fluorophenoxy)phenyl]-6H-pyrrolo[2,3-d]pyridazin-7-one]
23 | 10 to 1000 nM | C=CC(=O)N1CCCC(n2cc(-c3ccc(Oc4cccc(F)c4)cc3)c3c(N)n[nH]c(=O)c32)C1 (stereo not shown) [Example 62, 1-(1-acryloylpiperidin-3-yl)-4-amino-3-(4-(3-fluorophenoxy)phenyl)-1H-pyrrolo[2,3-d]pyridazin-7(6H)-one]
24 | ≤ 10 nM | CN(C)C/C=C/C(=O)N1CCCC(n2cc(-c3ccc(Oc4cccc(F)c4)cc3)c3c(N)n[nH]c(=O)c32)C1 (stereo not shown) [Example 63, 4-amino-1-[1-[(E)-4-(dimethylamino)but-2-enoyl]-3-piperidyl]-3-[4-(3-fluorophenoxy)phenyl]-6H-pyrrolo[2,3-d]pyridazin-7-one]
25 | 10 to 1000 nM | C=CC(=O)N1CCCC(n2cc(-c3ccc(Oc4ccc(Cl)cc4)cc3)c3c(N)n[nH]c(=O)c32)C1 (stereo not shown) [Example 64, 1-(1-acryloylpiperidin-3-yl)-4-amino-3-(4-(4-chlorophenoxy)phenyl)-1H-pyrrolo[2,3-d]pyridazin-7(6H)-one]
26 | 10 to 1000 nM | CN(C)C/C=C/C(=O)N1CCCC(n2cc(-c3ccc(Oc4ccc(Cl)cc4)cc3)c3c(N)n[nH]c(=O)c32)C1 (stereo not shown) [Example 65, 4-amino-3-[4-(4-chlorophenoxy)phenyl]-1-[1-[(E)-4-(dimethylamino)but-2-enoyl]-3-piperidyl]-6H-pyrrolo[2,3-d]pyridazin-7-one]
27 | 10 to 1000 nM | C=CC(=O)N1CCCC(n2cc(-c3ccc(Oc4cccc(Cl)c4)cc3)c3c(N)n[nH]c(=O)c32)C1 (stereo not shown) [Example 66, 1-(1-acryloylpiperidin-3-yl)-4-amino-3-(4-(3-chlorophenoxy)phenyl)-1H-pyrrolo[2,3-d]pyridazin-7(6H)-one]

Row | SMILES | IC50
28 | CN(C)C/C=C/C(=O)N1C[C@H](n2cc(-c3ccc(Oc4ccccc4)cc3)c3c(N)n[nH]c(=O)c32)CC(F)(F)C1 [Example 49, 4-amino-1-[(3R)-1-[(E)-4-(dimethylamino)but-2-enoyl]-5,5-difluoro-3-piperidyl]-3-(4-phenoxyphenyl)-6H-pyrrolo[2,3-d]pyridazin-7-one] | 10 to 1000 nM
